Experiment [1] relates to mature murine skin. The experiment can be described thus: Histology of punch biopsies of treated murine skin (epidermal thickening, proliferation, keratinocyte differentiation). As to conditions: for basal cell turn over / formation of normally-functioning supra basal granular keratinocytes: applied to the skin of mice, all trans retinoic acid 0.1%, all trans retinol 1.0%. It counts as in vivo, mice. The source says: Photomicrographs of murine tissue samples treated according to methods of the present invention are presented the figures. Differing amounts of inter-laminar keratinocyte differentiation were observed. In some cases, there is intra-laminar disruption, in which stratum corneum (SC) and granular layer (GL) are separated, indicating little granular keratinocyte formation and/or suppression of one or both of granular keratinocyte extracellular desmosomal proteins and/or reduced production of laminar granules (proteases, lipids). This was not considered an artifact of the micro-tome blade.
More particularly, histological observations, including degree of “keratinocyte differentiation” are described by reference to photomicrographs of retired breeder mice obtained from Charles River Laboratories, Inc. (Wilmington, Mass.). An area of approximately one square inch was shaved. Test compositions (e.g., control=carrier vehicle with ingredient known to be irritating; test=same carrier and known irritant from control+phospholipid) were administered in accordance with methods of the inventions. Punch biopsies of full thickness skin and subcutaneous fat were taken as follows: skin was swabbed with an antiseptic and injected with a local anaesthetic; an incision was made, and a tissue specimen was removed and preserved in 10% neutral buffered formalin at a volume of approximately ten times that of the tissue). Excision sites were sutured. The preserved tissues samples were sent to Louisiana State University, School of Veterinary Medicine for processing and analysis. More particularly, tissue was processed in graded alcohol [70% (v/v) ethanol, 90% (v/v) ethanol, absolute ethanol] followed by graded xylene [[…], absolute xylene]. Next the processed tissue was placed in blocks/molds filled with paraffin wax liquid, in an orientation with the epidermis on top, with ice on top to hold the tissue in place. Wax blocks were cooled in ice and sectioned at a thickness of 5-15 μm using a microtome with disposable blade (Leica Microtome Model RM2255). Microtomed sections were placed on adhesive slides, incubated at 37° C. for 24 hours (i.e., on slide racks), and then stored in slide containers at room temperature until H&E staining is performed to visualize histological microstructures. All histological samples were micro photographed at 400× under normal light with standard digital equipment. These photos were transferred to PHOTOSHOP® computer imaging software from Adobe Systems Pvt. Ltd., in which measurements of epidermal thickness, SC thickness, granulation, layering were determined.

Experiment [2] relates to TGF beta 1. As to the kind of experiment: DNA microarray assay, expression of proliferative/growth-factor related genes. It counts as cell-based. As to conditions: DMSO delivered retinol at 5 ppm; retinyl linoleate and lysophospholipid concentrate at a ratio of 1:0.4.
Experiment [3] deals with HBEGF. The experiment is described as above. To be noted: DMSO delivered retinol at 5 ppm; retinyl linoleate and lysophospholipid concentrate at a ratio of 1:0.4. It counts as cell-based.
Experiment [4] has as its system FGF. The experiment is described as above. It counts as cell-based. To be noted: DMSO delivered retinol at 5 ppm; retinyl linoleate and lysophospholipid concentrate at a ratio of 1:0.4.
The subject of experiment [5] is TGF alpha. Described as above. It counts as cell-based. As to conditions: DMSO delivered retinol at 5 ppm; retinyl linoleate and lysophospholipid concentrate at a ratio of 1:0.4.
Experiment [6] has as its system CSF2. The experiment is described as above. To be noted: DMSO delivered retinol at 5 ppm; retinyl linoleate and lysophospholipid concentrate at a ratio of 1:0.4. It counts as cell-based.
[7] abbreviates: 1% in a bioemulsion applied once daily over 2 consecutive days.
[8] abbreviates: bioemulsion applied once daily over 4 consecutive days (retinyl phosphate 1%).
Where [9] appears, read: 1% in a bioemulsion applied once daily over three consecutive days.
Where [10] appears, read: FIG. 7, bioemulsion with 1% retinyl linoleate.

These results are taken from US11173103B1, “Retinoids and epidermal stimulants” (Owen Biosciences, Inc., priority 2017, dated 2021).

With “Monoglyceryl retinoate [glyceryl mono retinoate]”, in experiment [1] (setting [7]), the differentiation entry is reported as “excellent” and the proliferation entry was “excellent”.
Regarding `CC(C=CC1=C(C)CCCC1(C)C)=CC=CC(C)=CCOC(=O)CCC(=O)OCC=C(C)C=CC=C(C)C=CC1=C(C)CCCC1(C)C` [diretinyl succinate], in experiment [1] (setting [8]), the keratinocyte differentiation result is listed as “de minimis” and the proliferation entry is recorded as “De minimis”.
Take Glyceryl diretinoate: in experiment [1] (setting [7]), the differentiation result was “good” and the proliferation entry is “good”.
Turning to `CC1=C(/C=C/C(C)=C\C=C\C(C)=C\COP(=O)(O)O)C(C)(C)CCC1` [retinyl phosphate], in experiment [1] (setting [8]), the keratinocyte differentiation result is “de minimis” and the proliferation entry is on record as “De minimis”.
acetyl-n-phenylalanine retinoate: in experiment [1] (setting [9]), the differentiation entry was “good” and the proliferation entry is on record as “good”.
As for `CC1=C(/C=C/C(C)=C/C=C/C(C)=C/CO)C(C)(C)CCC1` [DMSO Delivered Retinol, Retinol], the “TGF beta 1 level of expression (change)” value in experiment [2] is −50%. Also, the “HBEGF level of expression (change)” value in experiment [3] was −50%. Besides, in experiment [1], the “basal cell turn over” value is recorded as “stimulates” and the “formation of normally-functioning supra basal granular keratinocytes” value is given as “inhibits or suppresses”. Further, the “FGF level of expression (change)” value in experiment [4] is listed as −50%. Moreover, in experiment [5], the “TGF alpha level of expression (change)” value is listed as “+200%”. Besides, the “CSF2 level of expression (change)” value in experiment [6] is given as −25%.
Consider `CCCCC/C=C\C/C=C\CCCCCCCC(=O)OC/C=C(C)/C=C/C=C(C)/C=C/C1=C(C)CCCC1(C)C` [retinyl linoleate, Retinyl linoleate], for which, in experiment [1] (setting [10]), the SC density result is “Increased”, the differentiation entry was “without significant differentiation” and the proliferation result is on record as “Increased”.
As to `CC1=C(/C=C/C(C)=C/C=C/C(C)=C/C(=O)O)C(C)(C)CCC1` [all trans retinoic acid, Retinoic acid], in experiment [1], the “basal cell turn over” value is given as “stimulates” and the “formation of normally-functioning supra basal granular keratinocytes” value is recorded as “inhibits or suppresses”.
